Measurements taken from ChEMBL document CHEMBL4261647, “Synthesis, DNA and protein interactions and human topoisomerase inhibition of novel Spiroacridine derivatives” (Bioorg Med Chem, 2018).

Key:
Calf thymus DNA [1] = experiment: Binding affinity to calf thymus DNA by UV-vis absorption spectral analysis; assay type: nucleic-acid assay; details: Bos taurus
Albumin [2] = molecular target: T1, Albumin (Bos taurus, UniProt P02769); experiment: Binding affinity to bovine serum albumin assessed as decrease in protein fluorescence intensity up to 10 uM by fluorescence spectroscopic analysis; assay type: ADME; parameters: scale not given: the % may be the effect or the level left; details: cattle, isolated protein
Albumin [3] = molecular target: T1, Albumin; experiment: Binding affinity to bovine serum albumin assessed as Stern-Volmer quenching constant by fluorescence spectroscopic analysis; assay type: ADME; details: cattle, isolated protein
Calf thymus DNA [4] = experiment: Binding affinity to calf thymus DNA assessed as hypochromic effect up to 10 uM by UV-vis absorption spectral analysis; assay type: nucleic-acid assay; details: Bos taurus
[5] = molecular target: DNA topoisomerase 2-alpha (Homo sapiens) (UniProt P11388); experiment: Inhibition of recombinant human topoisomerase 2alpha assessed as decrease in relaxation of supercoiled pUC19 DNA at 100 uM after 30 mins by ethidium bromide staining based agarose gel electrophoresis relative to control
Calf thymus DNA [6] = experiment: Binding affinity to calf thymus DNA assessed as hyperchromic effect up to 10 uM by UV-vis absorption spectral analysis; assay type: nucleic-acid assay; details: Bos taurus

T1 sequence (P02769 whole entry): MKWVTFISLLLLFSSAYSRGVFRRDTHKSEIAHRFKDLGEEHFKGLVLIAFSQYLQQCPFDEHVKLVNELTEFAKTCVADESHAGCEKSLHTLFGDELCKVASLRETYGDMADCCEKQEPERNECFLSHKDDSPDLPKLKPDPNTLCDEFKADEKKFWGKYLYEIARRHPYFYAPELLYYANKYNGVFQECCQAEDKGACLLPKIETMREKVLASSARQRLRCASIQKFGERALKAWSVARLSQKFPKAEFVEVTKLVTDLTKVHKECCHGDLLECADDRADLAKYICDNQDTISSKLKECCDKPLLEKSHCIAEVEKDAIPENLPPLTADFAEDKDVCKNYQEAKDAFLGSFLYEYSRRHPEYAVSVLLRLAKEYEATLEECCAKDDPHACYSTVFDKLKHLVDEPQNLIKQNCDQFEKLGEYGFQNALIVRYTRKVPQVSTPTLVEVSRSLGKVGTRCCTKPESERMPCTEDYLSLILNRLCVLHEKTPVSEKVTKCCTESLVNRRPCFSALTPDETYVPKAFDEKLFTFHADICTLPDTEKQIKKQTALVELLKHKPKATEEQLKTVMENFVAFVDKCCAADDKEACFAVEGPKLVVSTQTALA
Chain of DNA topoisomerase 2-alpha (Homo sapiens) (P11388 whole entry): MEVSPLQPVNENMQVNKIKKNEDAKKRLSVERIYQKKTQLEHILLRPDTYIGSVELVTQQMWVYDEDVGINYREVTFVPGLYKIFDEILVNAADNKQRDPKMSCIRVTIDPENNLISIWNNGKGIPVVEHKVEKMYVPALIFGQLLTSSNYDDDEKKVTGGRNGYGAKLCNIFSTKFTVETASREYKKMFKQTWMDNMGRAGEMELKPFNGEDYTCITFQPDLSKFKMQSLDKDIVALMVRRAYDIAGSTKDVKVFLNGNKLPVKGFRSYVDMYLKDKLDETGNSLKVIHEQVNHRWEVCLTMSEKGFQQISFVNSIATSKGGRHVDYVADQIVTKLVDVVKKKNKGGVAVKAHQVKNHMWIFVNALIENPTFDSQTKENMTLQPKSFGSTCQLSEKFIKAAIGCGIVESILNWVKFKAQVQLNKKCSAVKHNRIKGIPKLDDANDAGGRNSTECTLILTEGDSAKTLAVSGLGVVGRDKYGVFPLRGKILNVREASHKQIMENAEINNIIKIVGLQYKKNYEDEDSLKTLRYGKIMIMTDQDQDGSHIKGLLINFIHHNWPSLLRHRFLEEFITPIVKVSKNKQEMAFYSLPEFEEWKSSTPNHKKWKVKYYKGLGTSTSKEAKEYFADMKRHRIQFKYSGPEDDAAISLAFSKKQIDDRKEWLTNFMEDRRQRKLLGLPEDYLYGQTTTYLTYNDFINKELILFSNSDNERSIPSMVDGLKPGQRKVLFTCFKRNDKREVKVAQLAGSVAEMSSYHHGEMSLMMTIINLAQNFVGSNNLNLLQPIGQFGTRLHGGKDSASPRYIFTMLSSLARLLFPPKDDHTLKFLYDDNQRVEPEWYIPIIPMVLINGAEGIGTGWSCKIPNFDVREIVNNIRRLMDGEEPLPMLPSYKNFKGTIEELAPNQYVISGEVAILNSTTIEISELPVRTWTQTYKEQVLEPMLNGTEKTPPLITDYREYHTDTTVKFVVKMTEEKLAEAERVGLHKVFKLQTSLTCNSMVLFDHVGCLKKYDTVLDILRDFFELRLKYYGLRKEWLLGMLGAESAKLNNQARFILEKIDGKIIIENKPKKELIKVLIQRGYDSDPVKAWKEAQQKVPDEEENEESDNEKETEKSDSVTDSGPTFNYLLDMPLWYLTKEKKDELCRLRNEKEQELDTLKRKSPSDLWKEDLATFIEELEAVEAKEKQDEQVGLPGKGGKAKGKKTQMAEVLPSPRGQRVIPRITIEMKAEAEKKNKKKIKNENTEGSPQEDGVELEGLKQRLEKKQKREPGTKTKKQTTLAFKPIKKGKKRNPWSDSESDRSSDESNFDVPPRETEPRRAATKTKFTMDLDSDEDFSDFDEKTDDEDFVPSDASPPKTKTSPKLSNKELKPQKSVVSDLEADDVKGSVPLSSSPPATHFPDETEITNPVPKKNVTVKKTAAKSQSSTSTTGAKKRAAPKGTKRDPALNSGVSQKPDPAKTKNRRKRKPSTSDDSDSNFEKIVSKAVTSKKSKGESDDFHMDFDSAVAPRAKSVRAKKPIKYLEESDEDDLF

Kb (Calf thymus DNA [1])	Activity (Albumin [2]) [%]	KSV (Albumin [3]) [×10⁴ /M]	Activity (Calf thymus DNA [4]) [%]	inhibition [5] [%]	Activity (Calf thymus DNA [6]) [%]	SMILES
3.7 ×10⁵ /M	51.46	2.3	8.06	1.64	–	N#CC1=CC2(c3ccccc3Nc3ccccc32)N(/N=C/c2ccccc2[N+](=O)[O-])C1=O
6.7 ×10⁵ /M	42.53	1.9	100	1.64	–	COc1ccc(Br)cc1/C=N/N1C(=O)C(C#N)=CC12c1ccccc1Nc1ccccc12
7.6 ×10⁵ /M	60.3	3.4	44.3	84.3	–	N#CC1=CC2(c3ccccc3Nc3ccccc32)N(/N=C/c2ccc(Cl)cc2)C1=O
1.6 ×10⁵ /M	45.77	2.1	30	15.9	–	N#CC1=CC2(c3ccccc3Nc3ccccc32)N(/N=C/c2c(Cl)cccc2Cl)C1=O
1.5 ×10⁵ /M	55.11	2.3	–	70.7	45.8	N#CC1=CC2(c3ccccc3Nc3ccccc32)N(/N=C/c2ccc(F)cc2)C1=O
8.2 ×10⁵ /M	48.01	2	–	61.7	65.3	N#CC1=CC2(c3ccccc3Nc3ccccc32)N(/N=C/c2ccc(Cl)cc2Cl)C1=O

Second part, the molecule before the results:

SMILES	Kb (Calf thymus DNA [1])	Activity (Albumin [2]) [%]	KSV (Albumin [3]) [×10⁴ /M]	Activity (Calf thymus DNA [4]) [%]	inhibition [5] [%]	Activity (Calf thymus DNA [6]) [%]
N#CC1=CC2(c3ccccc3Nc3ccccc32)N(/N=C/c2ccc([N+](=O)[O-])cc2)C1=O	4.8 ×10⁶ /M	71.74	3.1	13.5	43.7	–
COc1ccc(/C=N/N2C(=O)C(C#N)=CC23c2ccccc2Nc2ccccc23)cc1	–	–	–	–	88.1	–
CCOc1cc(/C=N/N2C(=O)C(C#N)=CC23c2ccccc2Nc2ccccc23)ccc1O	2.6 ×10⁵ /M	58.57	2.3	14.4	20.6	–
N#CC1=CC2(c3ccccc3Nc3ccccc32)N(/N=C/c2ccccc2)C1=O	–	–	–	–	9.78	–
CN(C)c1ccc(/C=N/N2C(=O)C(C#N)=CC23c2ccccc2Nc2ccccc23)cc1	1.1 ×10⁸ /M	54.95	2.7	7.14	1.64	–
